Nine compounds from ChEMBL document CHEMBL4613209, “Quinolone hybrids and their anti-cancer activities: An overview” (Eur J Med Chem, 2019) can be followed below.

The subject of one experiment is L1210. In words: Cytotoxicity against mouse L1210 cells assessed as reduction in cell viability by MTT assay. It counts as functional, cell-based. (In general: Tetrazolium assays rely on reduction of a dye to a coloured formazan, in cell work by metabolically active cells.)
As to `CN1CCN(c2cc3c(cc2F)c(=O)c(-c2nnc(SCc4nnc(-c5ccccc5)o4)o2)cn3C2CC2)CC1`, the IC50 (commonly the concentration needed to halve the response being measured) was in the range of 2.4 to 32.4 µM.
For `CC1COc2c(N3CCN(C)CC3)c(F)cc3c(=O)c(-c4nc5scc(-c6ccc(Cl)cc6)n5n4)cn1c23` (centres undefined), the IC50 lay in the range of 3.6 to 56.8 µM.
Still for that read-out and setting: the result for `COc1ccc(-c2csc3nc(-c4cn5c6c(c(N7CCN(C)CC7)c(F)cc6c4=O)OCC5C)nn23)cc1OC` (centres undefined) reads 35.7 to 53.6 µM; that for `CCn1cc(-c2nnc(SCc3nnc(-c4ccc(Cl)cc4)o3)[nH]2)c(=O)c2cc(F)c(N3CCN(C)CC3)cc21`, 3.8 to 35.2 µM; that for `CC1COc2c(N3CCN(C)CC3)c(F)cc3c(=O)c(-c4nc5scc(-c6ccccc6O)n5n4)cn1c23` (centres undefined), 3.6 to 56.8 µM.
Take `CN1CCN(c2cc3c(cc2F)c(=O)c(-c2nnc(SCc4nnc(-c5ccc([N+](=O)[O-])cc5)o4)o2)cn3C2CC2)CC1`: the IC50 lay in the range of 2.4 to 32.4 µM.
On to `CCn1cc(-c2nc(SCc3nnc(-c4ccccc4)o3)n(CN(C)C)n2)c(=O)c2cc(F)c(N3CCN(C)CC3)cc21`, for which the IC50 was 1.5 to 24.5 µM.
Regarding `CCn1cc(-c2nc(SCc3nnc(-c4ccc(C)cc4)o3)n(CN(C)C)n2)c(=O)c2cc(F)c(N3CCN(C)CC3)cc21`, the IC50 lay in the range of 1.5 to 24.5 µM.
On to `CC1COc2c(N3CCN(C)CC3)c(F)cc3c(=O)c(-c4nnc(SCc5nnc(-c6ccc(Cl)cc6)o5)o4)cn1c23` (centres undefined), for which the IC50 was 5.7 to 24.7 µM.

For a further experiment, the system named is SMMC-7721. In words: Cytotoxicity against human SMMC7721 cells assessed as reduction in cell viability by MTT assay. It counts as functional, cell-based.
For `CN1CCN(c2cc3c(cc2F)c(=O)c(-c2nnc(SCc4nnc(-c5ccccc5)o4)o2)cn3C2CC2)CC1`, the IC50 was in the range of 2.4 to 32.4 µM.
With `CC1COc2c(N3CCN(C)CC3)c(F)cc3c(=O)c(-c4nc5scc(-c6ccc(Cl)cc6)n5n4)cn1c23` (centres undefined), the IC50 fell in the range of 3.6 to 56.8 µM.
On to `COc1ccc(-c2csc3nc(-c4cn5c6c(c(N7CCN(C)CC7)c(F)cc6c4=O)OCC5C)nn23)cc1OC` (centres undefined), for which the IC50 lay in the range of 35.7 to 53.6 µM.
The same measure, in the same setting: with `CCn1cc(-c2nnc(SCc3nnc(-c4ccc(Cl)cc4)o3)[nH]2)c(=O)c2cc(F)c(N3CCN(C)CC3)cc21` the figure was 3.8 to 35.2 µM; with `CC1COc2c(N3CCN(C)CC3)c(F)cc3c(=O)c(-c4nc5scc(-c6ccccc6O)n5n4)cn1c23` (centres undefined), 3.6 to 56.8 µM.
For `CN1CCN(c2cc3c(cc2F)c(=O)c(-c2nnc(SCc4nnc(-c5ccc([N+](=O)[O-])cc5)o4)o2)cn3C2CC2)CC1`, the IC50 was in the range of 2.4 to 32.4 µM.
As for `CCn1cc(-c2nc(SCc3nnc(-c4ccccc4)o3)n(CN(C)C)n2)c(=O)c2cc(F)c(N3CCN(C)CC3)cc21`, the IC50 was in the range of 1.5 to 24.5 µM.
Turning to `CCn1cc(-c2nc(SCc3nnc(-c4ccc(C)cc4)o3)n(CN(C)C)n2)c(=O)c2cc(F)c(N3CCN(C)CC3)cc21`, the IC50 lay in the range of 1.5 to 24.5 µM.
Consider `CC1COc2c(N3CCN(C)CC3)c(F)cc3c(=O)c(-c4nnc(SCc5nnc(-c6ccc(Cl)cc6)o5)o4)cn1c23` (centres undefined), for which the IC50 lay within 5.7 to 24.7 µM.

The test system of another experiment is CAPAN-1. In words: Cytotoxicity against human Capan1 cells assessed as reduction in cell viability by MTT assay. It counts as functional, cell-based.
Take `CC1COc2c(N3CCN(C)CC3)c(F)cc3c(=O)c(-c4nc5scc(-c6ccc(Cl)cc6)n5n4)cn1c23` (centres undefined): the IC50 is 3.6 to 56.8 µM.
As for `COc1ccc(-c2csc3nc(-c4cn5c6c(c(N7CCN(C)CC7)c(F)cc6c4=O)OCC5C)nn23)cc1OC` (centres undefined), the IC50 was in the range of 35.7 to 53.6 µM.
The same measure, in the same setting: with `CCn1cc(-c2nnc(SCc3nnc(-c4ccc(Cl)cc4)o3)[nH]2)c(=O)c2cc(F)c(N3CCN(C)CC3)cc21` the figure was 3.8 to 35.2 µM; with `CC1COc2c(N3CCN(C)CC3)c(F)cc3c(=O)c(-c4nc5scc(-c6ccccc6O)n5n4)cn1c23` (centres undefined), 3.6 to 56.8 µM; with `CCn1cc(-c2nc(SCc3nnc(-c4ccccc4)o3)n(CN(C)C)n2)c(=O)c2cc(F)c(N3CCN(C)CC3)cc21`, 1.5 to 24.5 µM.
As to `CCn1cc(-c2nc(SCc3nnc(-c4ccc(C)cc4)o3)n(CN(C)C)n2)c(=O)c2cc(F)c(N3CCN(C)CC3)cc21`, the IC50 is 1.5 to 24.5 µM.

Another experiment concerns Hep 3B2. In words: Cytotoxicity against human Hep3B cells assessed as reduction in cell viability by MTT assay. It counts as functional, cell-based.
Consider `CC1COc2c(N3CCN(C)CC3)c(F)cc3c(=O)c(-c4nc5scc(-c6ccc(Cl)cc6)n5n4)cn1c23` (centres undefined), for which the IC50 lay in the range of 3.6 to 56.8 µM.
Turning to `COc1ccc(-c2csc3nc(-c4cn5c6c(c(N7CCN(C)CC7)c(F)cc6c4=O)OCC5C)nn23)cc1OC` (centres undefined), the IC50 lay in the range of 35.7 to 53.6 µM.
Consider `CCn1cc(-c2nnc(SCc3nnc(-c4ccc(Cl)cc4)o3)[nH]2)c(=O)c2cc(F)c(N3CCN(C)CC3)cc21`, for which the IC50 was in the range of 3.8 to 35.2 µM.
Take `CC1COc2c(N3CCN(C)CC3)c(F)cc3c(=O)c(-c4nc5scc(-c6ccccc6O)n5n4)cn1c23` (centres undefined): the IC50 was in the range of 3.6 to 56.8 µM.
In the case of `CCn1cc(-c2nc(SCc3nnc(-c4ccccc4)o3)n(CN(C)C)n2)c(=O)c2cc(F)c(N3CCN(C)CC3)cc21`, the IC50 lay within 1.5 to 24.5 µM.
As to `CCn1cc(-c2nc(SCc3nnc(-c4ccc(C)cc4)o3)n(CN(C)C)n2)c(=O)c2cc(F)c(N3CCN(C)CC3)cc21`, the IC50 lay in the range of 1.5 to 24.5 µM.

For another experiment, the system named is HL-60. In words: Cytotoxicity against human HL60 cells assessed as reduction in cell viability by MTT assay. It counts as functional, cell-based.
Consider `CN1CCN(c2cc3c(cc2F)c(=O)c(-c2nnc(SCc4nnc(-c5ccccc5)o4)o2)cn3C2CC2)CC1`, for which the IC50 lay within 2.4 to 32.4 µM.
With `CC1COc2c(N3CCN(C)CC3)c(F)cc3c(=O)c(-c4nc5scc(-c6ccc(Cl)cc6)n5n4)cn1c23` (centres undefined), the IC50 fell in the range of 3.6 to 56.8 µM.
Still for that read-out and setting: the result for `COc1ccc(-c2csc3nc(-c4cn5c6c(c(N7CCN(C)CC7)c(F)cc6c4=O)OCC5C)nn23)cc1OC` (centres undefined) reads 35.7 to 53.6 µM; that for `CCn1cc(-c2nnc(SCc3nnc(-c4ccc(Cl)cc4)o3)[nH]2)c(=O)c2cc(F)c(N3CCN(C)CC3)cc21`, 3.8 to 35.2 µM; that for `CC1COc2c(N3CCN(C)CC3)c(F)cc3c(=O)c(-c4nc5scc(-c6ccccc6O)n5n4)cn1c23` (centres undefined), 3.6 to 56.8 µM.
Regarding `CN1CCN(c2cc3c(cc2F)c(=O)c(-c2nnc(SCc4nnc(-c5ccc([N+](=O)[O-])cc5)o4)o2)cn3C2CC2)CC1`, the IC50 lay in the range of 2.4 to 32.4 µM.
Still for that read-out and setting: with `CCn1cc(-c2nc(SCc3nnc(-c4ccccc4)o3)n(CN(C)C)n2)c(=O)c2cc(F)c(N3CCN(C)CC3)cc21` the figure was 1.5 to 24.5 µM.
For `CCn1cc(-c2nc(SCc3nnc(-c4ccc(C)cc4)o3)n(CN(C)C)n2)c(=O)c2cc(F)c(N3CCN(C)CC3)cc21`, the IC50 fell in the range of 1.5 to 24.5 µM.
In the case of `CC1COc2c(N3CCN(C)CC3)c(F)cc3c(=O)c(-c4nnc(SCc5nnc(-c6ccc(Cl)cc6)o5)o4)cn1c23` (centres undefined), the IC50 fell in the range of 5.7 to 24.7 µM.
